Test results reported in US9440953B2, “Substituted amino triazoles useful as acidic mammalian chitinase inhibitors” (OncoArendi Therapeutics Sp z o.o., priority 2014, dated 2016).

Molecular target: recombinant human AMCase (Homo sapiens, UniProt Q9BZP6)
Experiment: Human AMCase Activity Assay
Type: biochemical
Conditions: recombinant hAMCase, 4-methylumbelliferyl B-D-N,N′-diacetylchitobioside substrate, citrate buffer pH 5.2, 37° C., 60 minutes
Procedure: Human AMCase Activity Assay
The assay was run in the 96-well plate format, each reaction in the total volume of 100 μL. 4-Methylumbelliferyl B-D-N,N′-diacetylchitobioside hydrate was used as a substrate for the enzyme. Upon hydrolysis by AMCase, the substrate releases 4-methylumbelliferyl (4MU) that, when ionized in basic pH, emits fluorescence at 460 nm.
Briefly, 40 μL of a substrate was added to each well, followed by 10 μL of compound dilution and 50 μL of hAMCase recombinant enzyme solution. […] The fluorescence of the reaction product was measured in Perkin Elmer Envision fluorescent plate reader at an excitation wavelength of 355 nm.

Sequence of recombinant human AMCase (Q9BZP6 22-476): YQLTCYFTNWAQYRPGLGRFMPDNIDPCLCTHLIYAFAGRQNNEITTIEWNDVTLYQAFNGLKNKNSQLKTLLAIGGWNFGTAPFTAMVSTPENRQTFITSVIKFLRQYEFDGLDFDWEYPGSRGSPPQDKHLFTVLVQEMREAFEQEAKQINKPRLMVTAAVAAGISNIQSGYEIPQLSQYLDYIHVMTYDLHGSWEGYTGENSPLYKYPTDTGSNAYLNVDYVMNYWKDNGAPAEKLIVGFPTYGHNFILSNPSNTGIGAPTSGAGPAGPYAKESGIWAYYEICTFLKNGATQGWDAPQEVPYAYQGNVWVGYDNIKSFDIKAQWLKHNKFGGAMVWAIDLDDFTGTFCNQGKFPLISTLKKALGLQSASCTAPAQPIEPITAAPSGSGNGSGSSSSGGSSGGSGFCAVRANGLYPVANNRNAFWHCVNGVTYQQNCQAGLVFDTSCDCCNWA

Question: Which IC50 does the source give for `Nc1n[nH]c(N2CCC(N(CCc3ccc(Cl)cc3)Cc3ccccc3C(=O)O)CC2)n1` [Example 2, 2-(((1-(3-amino-1H-1,2,4-triazol-5-yl)piperidin-4-yl)(4-chlorophenethyl)amino-)methyl)benzoic acid] here?
Answer: The IC50 was 100 to 1000 nM.

Question: For `Nc1n[nH]c(N2CCC(N(CCc3ccc(Br)cc3)Cc3cccc(C(=O)O)c3)CC2)n1` [Example 3, 3-(((1-(3-amino-1H-1,2,4-triazol-5-yl)piperidin-4-yl)(4-bromophenethyl)amino)-methyl)benzoic acid], which IC50 is on record?
Answer: The IC50 was 1 to 10 nM.

Question: Which IC50 does the source give for `Nc1n[nH]c(N2CCC(N(CCc3ccc(Br)cc3)Cc3ccc(C(=O)O)cc3)CC2)n1` [Example 4, 4-(((1-(3-amino-1H-1,2,4-triazol-5-yl)piperidin-4-yl)(4-bromophenethyl)-amino)methyl)benzoic acid] here?
Answer: Its IC50 is 1 to 10 nM.

Question: How did the IC50 turn out when `Cc1cc(CN(CCc2ccc(Cl)cc2)C2CCN(c3nc(N)n[nH]3)CC2)ccc1C(=O)O` [Example 5, 4-(((1-(3-amino-1H-1,2,4-triazol-5-yl)piperidin-4-yl)(4-chlorophenethyl)amino)-methyl)-2-methylbenzoic acid] was run?
Answer: Its IC50 is 1 to 10 nM.

Question: How did the IC50 turn out when `Cc1ccc(CN(CCc2ccc(Cl)cc2)C2CCN(c3nc(N)n[nH]3)CC2)cc1C(=O)O` [Example 6, 5-(((1-(3-amino-1H-1,2,4-triazol-5-yl)piperidin-4-yl)(4-chlorophenethyl)-amino)methyl)-2-methylbenzoic acid] was run?
Answer: The IC50 was 10 to 100 nM.

Question: `Nc1n[nH]c(N2CCC(N(CCc3ccc(Cl)cc3)Cc3ccc(Cl)c(C(=O)O)c3)CC2)n1` [Example 7, 5-(((1-(3-amino-1H-1,2,4-triazol-5-yl)piperidin-4-yl)(4-chlorophenethyl)amino)-methyl)-2-chlorobenzoic acid] was tested. Which IC50 did it give?
Answer: Its IC50 is 1 to 10 nM.

Question: With `Nc1n[nH]c(N2CCC(N(CCc3ccc(Cl)cc3)Cc3ccc(F)c(C(=O)O)c3)CC2)n1` [Example 8, 5-(((1-(3-amino-1H-1,2,4-triazol-5-yl)piperidin-4-yl)(4-chlorophenethyl)amino)-methyl)-2-fluorobenzoic acid] as the compound, how does the IC50 read?
Answer: The IC50 was 10 to 100 nM.

Question: Which IC50 does the source give for `Nc1n[nH]c(N2CCC(N(CCNC(=O)c3ccccc3)CCc3ccc(Cl)cc3)CC2)n1` [Example 9, N-(2-((1-(3-amino-1H-1,2,4-triazol-5-yl)piperidin-4-yl)(4-chlorophenethyl)amino)-ethyl)benzamide] here?
Answer: Its IC50 is 10 to 100 nM.

Question: `CC(C)NC(=O)NCCN(CCc1ccc(Cl)cc1)C1CCN(c2nc(N)n[nH]2)CC1` [Example 12, 1-(2-((1-(3-amino-1H-1,2,4-triazol-5-yl)piperidin-4-yl)(4-chlorophenethyl)-amino)ethyl)-3-isopropylurea] was tested. Which IC50 did it give?
Answer: The IC50 was 100 to 1000 nM.

Question: Which IC50 does the source give for `Nc1n[nH]c(N2CCC(N(CCNC(=O)C(F)(F)F)CCc3ccc(Cl)cc3)CC2)n1` [Example 14, N-(2-((1-(3-amino-1H-1,2,4-triazol-5-yl)piperidin-4-yl)(4-chlorophenethyl)-amino)ethyl)-2,2,2-trifluoroacetamide] here?
Answer: Its IC50 is 100 to 1000 nM.

Question: `Nc1n[nH]c(N2CCC(N(CCc3ccc(Br)cc3)Cc3ccc(S(N)(=O)=O)cc3)CC2)n1` [Example 15, 4-(((1-(3-amino-1H-1,2,4-triazol-5-yl)piperidin-4-yl)(4-bromophenethyl)amino)-methyl)benzenesulfonamide] was tested. Which IC50 did it give?
Answer: Its IC50 is 1 to 10 nM.

Question: Which IC50 does the source give for `CC(=O)NS(=O)(=O)c1ccc(CN(CCc2ccc(Br)cc2)C2CCN(c3nc(N)n[nH]3)CC2)cc1` [Example 16, N-((4-(((1-(3-amino-1H-1,2,4-triazol-5-yl)piperidin-4-yl)(4-bromophenethyl)-amino)methyl)phenyl)sulfonyl)acetamide] here?
Answer: Its IC50 is 1 to 10 nM.

Question: `CC(C)C(=O)NS(=O)(=O)c1ccc(CN(CCc2ccc(Br)cc2)C2CCN(c3nc(N)n[nH]3)CC2)cc1` [Example 17, N-((4-(((1-(3-amino-1H-1,2,4-triazol-5-yl)piperidin-4-yl)(4-bromophenethyl)-amino)methyl)phenyl)sulfonyl)isobutyramide] was tested. Which IC50 did it give?
Answer: The IC50 was 1 to 10 nM.
